# Reference: patent US11607458B2 (Georgia State University Research Foundation, Inc, priority 2017, dated 2023)
# Legend:
# [1] = Stability of tetrazine prodrugs in PBS with or without 1 mM cysteine (HPLC); format: physicochemical; settings: 25 μM, n = 4
# Experimental: Due to the electron deficient nature of the tetrazine moiety, the stability of the tetrazine-linked prodrugs in the presence of high concentrations of thiol species was studied. In general, a solution of tetrazine prodrug (500 μL, 500 μM) was added to either 9.5 mL of PBS or 1 mM cysteine solution in PBS in a 20-mL vial. The solution was stirred at r.t. or 37° C. for 24 h. The reaction solution was injected into HPLC, and analyzed with Method A (described above) for prodrugs 1b and 1c, and Method B for prodrug 1d.
# Prodrug (1d or 1b, 25 μM in PBS alone or in the presence of 1 mM cysteine (Cys) in PBS) was incubated at r.t or 37° C. for 24 h. Then HPLC was used to monitor the concentration of the remaining prodrug (Table 5). No stability problems were observed.
# [2] = HPLC studies of reaction kinetics of tetrazine prodrugs with cyclooctyne alkynes (Kobs, second-order rate constant k2); format: physicochemical; settings: for Kobs: prodrug 25 μM; for k2 at 37° C. (second order rate constant) / k2 at r.t (second order rate constant): PBS containing 10% DMSO, n = 3
# Experimental: Stock solution preparation. Each of the tetrazine prodrugs (compounds 1b, 1c, and 1d) was dissolved in DMSO to afford a 500-μM stock solution. Each of the alkynes (compounds 2a, 2b, 2c, and 2d) was dissolved in DMSO to afford a 50-mM stock solution. Doxorubicin (Dox) and dansylamino compound (DA) 1.1b were each dissolved in DMSO to afford 1-mM stock solutions.
# (§1) HPLC method A.: mobile phase A (10 mM NaH2PO4 in water, pH=5.0) and mobile phase B (ACN), flow rate: 1 mL/min, running time: 30 min, the gradient elution method: 25% B from 0 to 6 min, 25% to 50% B from 6 to 8 min, 50% B from 8 to 15 min, 50% to 99% B from 15 to 20 min, 99% B from 20 to 25 min, 99% to 25% B from 25 to 30 min. Detection wavelength: 256 nm. Column: Waters C18 3.5 μM, 4.6×100 mm. Injection volume: 20 μL.
# as §1, with “method B:” for “method A.:”, “method: 30%” for “method: 25%”, “min, 30%” for “min, 25%”, “25 min.” for “25 min,”, “to 30%” for “to 25%”, “Detection wavelength 1: 256, detection wavelength 2: 337” for “Detection wavelength: 256”
# General procedures HPLC studies of reaction kinetics. To three 20-ml vials with 9 mL PBS were added a solution of tetrazine prodrug (500 μL, 500 μM). 350 μL, 300 μL and 250 μL DMSO were added to vial respectively, and then 150 μL, 200 μL and 250 μL of the alkyne solution (50 mM in DMSO) were added to the vials to afford final concentrations of alkyne 0.75 mM, 1 mM and 1.25 mM in PBS (10% DMSO, 25 μM prodrug) respectively. The reaction was stirred at r.t or 37° C. respectively. Every 30 min about 500 μL reaction mixtures were taken out and 20 μL of them were injected into the HPLC by the autosampler; the rest of them were poured back to the reaction mixture. (Note: In the cases of prodrugs 1d or 1b reacting with alkyne 2d at 37° C., the final concentrations of 2d in the kinetic studies were 250 μM, 300 μM and 350 μM).
# Determination of second-order rate constants. The reaction rate constant, kobs, was calculated for each concentration of the alkyne by fitting the prodrug areas versus time using eq. 1: Y=A exp(−kobst) eq. 1 where Y is the prodrug area, and t is time. The pseudo-first-order rate constant, kobs, was then plotted against the concentration of alkyne to yield the second-order rate constant using eq 2: kobs=k2[Alkyne] eq. 2 where k2 is the second-order rate constant.
smiles,measurement,setting,value
C#CCOc1ccc(-c2nnc(C(=O)NC3CC(OC4CC(O)(C(=O)CO)Cc5c(O)c6c(c(O)c54)C(=O)c4c(OC)cccc4C6=O)OC(C)C3O)nn2)cc1 (stereo not drawn) [1b],"Prodrugs remaining, 24 h in PBS with 1 mM Cys at 37° C.","[1]; PBS (5% DMSO) with 1 mM Cys, 37° C.",76 ± 5%
same,"Prodrugs remaining, 24 h in PBS with 1 mM Cys at r.t","[1]; PBS (5% DMSO) with 1 mM Cys, r.t",80 ± 5%
same,"Prodrugs remaining, 24 h in PBS at 37° C.","[1]; PBS (5% DMSO), 37° C.",78 ± 5%
same,"Prodrugs remaining, 24 h in PBS at r.t","[1]; PBS (5% DMSO), r.t",85 ± 5%
same,Kobs,"[2]; 37° C., alkyne 2a 0.75 mM, Expt. 1",0.418 h⁻¹
same,Kobs,"[2]; 37° C., alkyne 2a 0.75 mM, Expt. 2",0.438 h⁻¹
same,Kobs,"[2]; 37° C., alkyne 2a 0.75 mM, Expt. 3",0.495 h⁻¹
same,Kobs,"[2]; 37° C., alkyne 2a 1.00 mM, Expt. 1",0.546 h⁻¹
same,Kobs,"[2]; 37° C., alkyne 2a 1.00 mM, Expt. 2",0.598 h⁻¹
same,Kobs,"[2]; 37° C., alkyne 2a 1.00 mM, Expt. 3",0.678 h⁻¹
same,Kobs,"[2]; 37° C., alkyne 2a 1.25 mM, Expt. 1",0.673 h⁻¹
same,Kobs,"[2]; 37° C., alkyne 2a 1.25 mM, Expt. 2",0.739 h⁻¹
same,Kobs,"[2]; 37° C., alkyne 2a 1.25 mM, Expt. 3",0.857 h⁻¹
same,Kobs,"[2]; 37° C., alkyne 2b 0.75 mM, Expt. 1",0.486 h⁻¹
same,Kobs,"[2]; 37° C., alkyne 2b 0.75 mM, Expt. 2",0.503 h⁻¹
same,Kobs,"[2]; 37° C., alkyne 2b 0.75 mM, Expt. 3",0.533 h⁻¹
same,Kobs,"[2]; 37° C., alkyne 2b 1.00 mM, Expt. 1",0.635 h⁻¹
same,Kobs,"[2]; 37° C., alkyne 2b 1.00 mM, Expt. 2",0.672 h⁻¹
same,Kobs,"[2]; 37° C., alkyne 2b 1.00 mM, Expt. 3",0.622 h⁻¹
same,Kobs,"[2]; 37° C., alkyne 2b 1.25 mM, Expt. 1",0.783 h⁻¹
same,Kobs,"[2]; 37° C., alkyne 2b 1.25 mM, Expt. 2",0.846 h⁻¹
same,Kobs,"[2]; 37° C., alkyne 2b 1.25 mM, Expt. 3",0.905 h⁻¹
same,Kobs,"[2]; 37° C., alkyne 2c 0.75 mM, Expt. 1",0.0607 h⁻¹
same,Kobs,"[2]; 37° C., alkyne 2c 0.75 mM, Expt. 2",0.0671 h⁻¹
same,Kobs,"[2]; 37° C., alkyne 2c 0.75 mM, Expt. 3",0.0696 h⁻¹
same,Kobs,"[2]; 37° C., alkyne 2c 1.00 mM, Expt. 1",0.0798 h⁻¹
same,Kobs,"[2]; 37° C., alkyne 2c 1.00 mM, Expt. 2",0.0895 h⁻¹
same,Kobs,"[2]; 37° C., alkyne 2c 1.00 mM, Expt. 3",0.0941 h⁻¹
same,Kobs,"[2]; 37° C., alkyne 2c 1.25 mM, Expt. 1",0.0986 h⁻¹
same,Kobs,"[2]; 37° C., alkyne 2c 1.25 mM, Expt. 2",0.112 h⁻¹
same,Kobs,"[2]; 37° C., alkyne 2c 1.25 mM, Expt. 3",0.119 h⁻¹
same,Kobs,"[2]; 37° C., alkyne 2d 0.25 mM, Expt. 1",1.90 h⁻¹
same,Kobs,"[2]; 37° C., alkyne 2d 0.25 mM, Expt. 2",1.81 h⁻¹
same,Kobs,"[2]; 37° C., alkyne 2d 0.25 mM, Expt. 3",1.97 h⁻¹
same,Kobs,"[2]; 37° C., alkyne 2d 0.3 mM, Expt. 1",2.28 h⁻¹
same,Kobs,"[2]; 37° C., alkyne 2d 0.3 mM, Expt. 2",2.15 h⁻¹
same,Kobs,"[2]; 37° C., alkyne 2d 0.3 mM, Expt. 3",2.38 h⁻¹
same,Kobs,"[2]; 37° C., alkyne 2d 0.35 mM, Expt. 1",2.65 h⁻¹
same,Kobs,"[2]; 37° C., alkyne 2d 0.35 mM, Expt. 2",2.48 h⁻¹
same,Kobs,"[2]; 37° C., alkyne 2d 0.35 mM, Expt. 3",2.78 h⁻¹
same,k2 at 37° C. (second order rate constant),"[2]; alkyne 2a, 37° C.",0.17 M⁻¹ s⁻¹
same,k2 at 37° C. (second order rate constant),"[2]; alkyne 2a, 37° C., listed as lb",0.17 ± 0.05 M⁻¹ s⁻¹
same,k2 at r.t (second order rate constant),"[2]; alkyne 2a, r.t",0.061 ± 0.013 M⁻¹ s⁻¹
same,k2 at 37° C. (second order rate constant),"[2]; alkyne 2b, 37° C.",0.19 M⁻¹ s⁻¹
same,k2 at 37° C. (second order rate constant),"[2]; alkyne 2b, 37° C., listed as lb",0.19 ± 0.04 M⁻¹ s⁻¹
same,k2 at r.t (second order rate constant),"[2]; alkyne 2b, r.t",0.065 ± 0.013 M⁻¹ s⁻¹
same,k2 at 37° C. (second order rate constant),"[2]; alkyne 2c, 37° C.",0.025 ± 0.006 M⁻¹ s⁻¹
same,k2 at r.t (second order rate constant),"[2]; alkyne 2c, r.t",0.0078 ± 0.0009 M⁻¹ s⁻¹
same,k2 at 37° C. (second order rate constant),"[2]; alkyne 2d, 37° C.",2.1 M⁻¹ s⁻¹
same,k2 at 37° C. (second order rate constant),"[2]; alkyne 2d, 37° C., listed as lb",2.1 ± 0.4 M⁻¹ s⁻¹
same,k2 at r.t (second order rate constant),"[2]; alkyne 2d, r.t",0.36 ± 0.07 M⁻¹ s⁻¹
same,Kobs,"[2]; r.t, alkyne 2a 0.75 mM, Expt. 1",0.183 h⁻¹
same,Kobs,"[2]; r.t, alkyne 2a 0.75 mM, Expt. 2",0.191 h⁻¹
same,Kobs,"[2]; r.t, alkyne 2a 0.75 mM, Expt. 3",0.185 h⁻¹
same,Kobs,"[2]; r.t, alkyne 2a 1.00 mM, Expt. 1",0.235 h⁻¹
same,Kobs,"[2]; r.t, alkyne 2a 1.00 mM, Expt. 2",0.246 h⁻¹
same,Kobs,"[2]; r.t, alkyne 2a 1.00 mM, Expt. 3",0.247 h⁻¹
same,Kobs,"[2]; r.t, alkyne 2a 1.25 mM, Expt. 1",0.289 h⁻¹
same,Kobs,"[2]; r.t, alkyne 2a 1.25 mM, Expt. 2",0.295 h⁻¹
same,Kobs,"[2]; r.t, alkyne 2a 1.25 mM, Expt. 3",0.307 h⁻¹
same,Kobs,"[2]; r.t, alkyne 2b 0.75 mM, Expt. 1",0.201 h⁻¹
same,Kobs,"[2]; r.t, alkyne 2b 0.75 mM, Expt. 2",0.195 h⁻¹
same,Kobs,"[2]; r.t, alkyne 2b 0.75 mM, Expt. 3",0.197 h⁻¹
same,Kobs,"[2]; r.t, alkyne 2b 1.00 mM, Expt. 1",0.261 h⁻¹
same,Kobs,"[2]; r.t, alkyne 2b 1.00 mM, Expt. 2",0.257 h⁻¹
same,Kobs,"[2]; r.t, alkyne 2b 1.00 mM, Expt. 3",0.261 h⁻¹
same,Kobs,"[2]; r.t, alkyne 2b 1.25 mM, Expt. 1",0.309 h⁻¹
same,Kobs,"[2]; r.t, alkyne 2b 1.25 mM, Expt. 2",0.318 h⁻¹
same,Kobs,"[2]; r.t, alkyne 2b 1.25 mM, Expt. 3",0.326 h⁻¹
same,Kobs,"[2]; r.t, alkyne 2c 0.75 mM, Expt. 1",0.0202 h⁻¹
same,Kobs,"[2]; r.t, alkyne 2c 0.75 mM, Expt. 2",0.0209 h⁻¹
same,Kobs,"[2]; r.t, alkyne 2c 0.75 mM, Expt. 3",0.0207 h⁻¹
same,Kobs,"[2]; r.t, alkyne 2c 1.00 mM, Expt. 1",0.0282 h⁻¹
same,Kobs,"[2]; r.t, alkyne 2c 1.00 mM, Expt. 2",0.0262 h⁻¹
same,Kobs,"[2]; r.t, alkyne 2c 1.00 mM, Expt. 3",0.0278 h⁻¹
same,Kobs,"[2]; r.t, alkyne 2c 1.25 mM, Expt. 1",0.0353 h⁻¹
same,Kobs,"[2]; r.t, alkyne 2c 1.25 mM, Expt. 2",0.0341 h⁻¹
same,Kobs,"[2]; r.t, alkyne 2c 1.25 mM, Expt. 3",0.0344 h⁻¹
same,Kobs,"[2]; r.t, alkyne 2d 0.75 mM, Expt. 1",0.894 h⁻¹
same,Kobs,"[2]; r.t, alkyne 2d 0.75 mM, Expt. 2",0.976 h⁻¹
same,Kobs,"[2]; r.t, alkyne 2d 0.75 mM, Expt. 3",0.993 h⁻¹
same,Kobs,"[2]; r.t, alkyne 2d 1.00 mM, Expt. 1",1.18 h⁻¹
same,Kobs,"[2]; r.t, alkyne 2d 1.00 mM, Expt. 2",1.30 h⁻¹
same,Kobs,"[2]; r.t, alkyne 2d 1.00 mM, Expt. 3",1.34 h⁻¹
same,Kobs,"[2]; r.t, alkyne 2d 1.25 mM, Expt. 1",1.47 h⁻¹
same,Kobs,"[2]; r.t, alkyne 2d 1.25 mM, Expt. 2",1.62 h⁻¹
same,Kobs,"[2]; r.t, alkyne 2d 1.25 mM, Expt. 3",1.69 h⁻¹
